Tests used:
Format in all cases: in vivo, Caenorhabditis elegans
N2 worms = test: Locomotory ability / spontaneous movement (body bends); details: 50 μM ThT
Procedure: (§1) Data are presented as bends/min and represent the average of three independent experiments. *p<0.0001. e) Dose-response Kaplan-Meier survival curves of synchronously ageing hermaphrodite N2 populations exposed to 0 (control) to […], f) HBX and g) HBT at 20° C. (−) Control, (▪) 1 nM, ([…]) 10 μM, (▴) 100 μM, (▾) […]. Graphs are representative of three independent experiments.

[1] = system: HE250 [unc-52(e669su250)II]; test: RNAi knockdown of proteostasis factors with paralysis scoring; details: HE250, 50 μM ThT
Procedure: RNAi bacterial strains expressing double-stranded RNA that inactivates specified genes were cultured and utilized as previously described. (Timmons, L., Court, D. L. & Fire, A. Ingestion of bacterially expressed dsRNAs can produce specific and potent genetic interference in Caenorhabditis elegans. Gene 263, 103-112 (2001).) Briefly, eggs isolated from synchronous populations of unc-52(e669su250) cultures were placed on fresh RNAi plates and allowed to grow at 15° C.; 3 days later, L4 molt animals were transferred to new plates seeded with the same bacteria in presence or absence of ThT and switched to 25° C. The cultures were scored for paralysis after 48 h of treatment as described above. In all cases, 1 mM isopropyl-beta-D-thiogalactopyranoside (IPTG) was used for induction of double stranded RNA. In all the cases the identity of the clones was confirmed by sequencing.

wildtype (N2) worms = test: Pharyngeal pumping rate; details: 50 μM ThT
Procedure: FIG. 11A-B. ThT produces small changes in pharyngeal pumping in N2 worms and increases lifespan on a dietary restriction model. a) Pharyngeal pumping rates of wildtype animals raised on 50 μM ThT measured at 3 (left panel) and 6 days of treatment (right panel). Pumping rates of 15 individuals were scored and the averages of three independent experiments are shown (*p<0.01). b) 1 and 10 μM ThT increase lifespan of N2 worms raised on 1×10^9 cfu/ml at 20° C. as compared to untreated worms (left panel). Percent gain in median survival of N2 populations cultured on 0-50 μM ThT (right panel). Bars are representative of 2 to 4 independent experiments per duplicate.

CF1038 [daf-16(mu86)I] = test: Lifespan assay, daf-16 mutant; details: 50 μM ThT, 100 μM curcumin
Procedure: Lifespan assays were performed as described previously. (McColl, G. et al. Pharmacogenetic analysis of lithium-induced delayed aging in Caenorhabditis elegans. J Biol Chem 283, 350-357 (2008). Briefly, the nematode growth media (NGM) plates were prepared under sterile conditions. 100 μL of concentrated stocks of each of the compounds used in this study were added onto a previously prepared NGM small plate (3 mL volume) immediately spread over the surface of the plate. The final concentrations quoted in the text assume an even distribution of compound throughout the 3 ml plate. The plates were then placed in a laminar flow hood at room temperature for 30 min and then 60 μL of a concentrated suspension of E. coli OP50 was spotted to form a circular lawn on the center of each plate. Thirty late L4 larvae growing at 20° C. were transferred to fresh NGM plates with FUdR (75 μM) in presence or absence of the specified compounds and incubated at 20° C. The first day of adulthood is Day 3 in survival curves. There was between-experiment variation in the magnitude of the lifespan extension observed with ThT which appeared to correlate with different suppliers and batches. ThT concentration should be optimized depending on batch and purity and stability of the compound. […]
Animals were scored as alive, dead or lost every other day. […]

[2] = system: SKN-1 fusion protein [CF2189 (skn-1::GFP)]; test: SKN-1::GFP localization; details: ThT treatment
Procedure: For fluorescent microscopy, TJ356 zIs356 IV [daf-16::daf-16-gfp+rol-6] or CF2189 Is001(skn-1::gfp+rol-6) were paralyzed with 1 mM levamisole mounted on 1% agarose pads and imaged using Olympus BX51 (60× objective) and HCImage software (Hamamatsu). For immunofluorescence, N2, […], CB1157 unc-54(e1157) or CL4176 dvIs27 [myo-3::Aβ(3 to 42)-let 3′UTR(pAF29); pRF4 (rol-6(su1006))] worms were treated for 24-36 h with or without 50 μM ThT at 25° C. After this period the worms were collected, rinsed, and fixed in 4% paraformaldehyde overnight. […] Paramyosin and perlecans were detected with primary monoclonal antibodies 5-23 and MH3 (developed by Henry Epstein and Robert H. Waterston and obtained from the Developmental Studies Hybridoma Bank developed under the auspices of the NICHD and maintained by The University of Iowa, Department of Biology, Iowa City, Iowa 52242) and AlexaFluor 633 goat anti-mouse (Molecular Probes) as secondary antibody. Soluble oligomers and Aβ peptide were detected with anti polyclonal All (Invitrogen) and 6E10 monoclonal (Covance) primary antibodies, respectively, with AlexaFluor 568 goat anti-rabbit and AlexaFluor 488 goat anti-mouse (Molecular Probes) as secondary antibodies. Images were processed and quantified by using Image Analyst MK II (Novato, Calif.).

wildtype (N2) C. elegans = test: Demographic analysis of age-specific mortality (Gompertz); details: 50 μM ThT, p<0.001
Procedure: as §1
Estimates of initial mortality rate and rate of increase with age and model fitting were made using WinModest. Gompertz mortality curves, ln(ux)=ln(a)+bx, where ux defines the age-specific hazard, were fitted with log-likelihood ratios used to examined the effects of constraining the intercept (a) or gradient (b) variables.

Cc1ccc2c(c1)sc(-c1ccc(N(C)C)cc1)[n+]2C.[Cl-] [ThT, 4-(3,6-dimethyl-1,3-benzothiazol-3-ium-2-yl)-N,N-dimethylaniline chloride]
age-related decline in spontaneous movement (N2 worms): retarded age-related decline in spontaneous movement
ThT protection from paralysis with RNAi of proteasome and autophagy genes ([1]; RNAi aip-1, atg-9, vps-34): required for the beneficial effects of ThT
ThT protection from paralysis with RNAi of acute stress genes ([1]; RNAi hsp-16.2, hsp-16.41): decreased
ThT suppression of paralysis with daf-16 RNAi ([1]; daf-16 (RNAi)): potentiated
ThT effect on paralysis with lmp-2 RNAi ([1]; lmp-2(RNAi)): significantly improved the ThT effect on paralysis
ThT effect on paralysis with skn-1 RNAi ([1]; skn-1 (RNAi)): required for ThT effect on the paralysis phenotype
decrease in pharyngeal pumping rate (wildtype (N2) worms; after 3 days of treatment): ~15%
pharyngeal pumping rate (wildtype (N2) worms; after 6 days of treatment): No difference was detected
lifespan of daf-16(mu86) mutant (CF1038 [daf-16(mu86)I]): extended the lifespan
SKN-1::GFP nuclear accumulation [2]: no nuclear accumulation
age-specific mortality (wildtype (N2) C. elegans): reduced age-specific mortality at all ages
